In article PMC11912475 (Journal of Medicinal Chemistry, 2025):

Key:
[1] = molecular target: GluN1-GluN2A NMDAR subtype (Homo sapiens, UniProt Q05586+Q12879); assay: FLIPR/Ca2+ assay, NMDAR GluN1-GluN2A subtype in CHO cells; assay type: cell-based; details: CHO cells, 10 μM L-glutamate and 10 μM glycine; n.d. = 50% of inhibition could not be reached at the highest concentration used
How it was run: (§1)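 Fluo-4-loaded CHO cells (with probenecid and 500 μM ketamine during loading) stimulated with 10 μM L-glutamate plus 10 μM glycine added together with compounds, in HEPES buffer pH 7.3 with 2 mM CaCl2.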

[2] = molecular target: T1, GluN1-GluN2B NMDAR subtype (Homo sapiens, UniProt Q05586+Q13224); assay: FLIPR/Ca2+ assay, NMDAR GluN1-GluN2B subtype in CHO cells; assay type: cell-based; details: CHO cells, 10 μM L-glutamate and 10 μM glycine; n.d. = 50% of inhibition could not be reached at the highest concentration used
T1 construct: host or cells: NR1-2B-CHO cells, constitutive expression
How it was run: as §1

[3] = molecular target: GluN1-GluN2C NMDAR subtype (Homo sapiens, UniProt Q05586+Q14957); assay: FLIPR/Ca2+ assay, NMDAR GluN1-GluN2C subtype in CHO cells; assay type: cell-based; details: CHO cells, 10 μM L-glutamate and 10 μM glycine; n.d. = 50% of inhibition could not be reached at the highest concentration used
Sequence of GluN1-GluN2C NMDAR subtype (Q14957 20-1233, other chains not shown): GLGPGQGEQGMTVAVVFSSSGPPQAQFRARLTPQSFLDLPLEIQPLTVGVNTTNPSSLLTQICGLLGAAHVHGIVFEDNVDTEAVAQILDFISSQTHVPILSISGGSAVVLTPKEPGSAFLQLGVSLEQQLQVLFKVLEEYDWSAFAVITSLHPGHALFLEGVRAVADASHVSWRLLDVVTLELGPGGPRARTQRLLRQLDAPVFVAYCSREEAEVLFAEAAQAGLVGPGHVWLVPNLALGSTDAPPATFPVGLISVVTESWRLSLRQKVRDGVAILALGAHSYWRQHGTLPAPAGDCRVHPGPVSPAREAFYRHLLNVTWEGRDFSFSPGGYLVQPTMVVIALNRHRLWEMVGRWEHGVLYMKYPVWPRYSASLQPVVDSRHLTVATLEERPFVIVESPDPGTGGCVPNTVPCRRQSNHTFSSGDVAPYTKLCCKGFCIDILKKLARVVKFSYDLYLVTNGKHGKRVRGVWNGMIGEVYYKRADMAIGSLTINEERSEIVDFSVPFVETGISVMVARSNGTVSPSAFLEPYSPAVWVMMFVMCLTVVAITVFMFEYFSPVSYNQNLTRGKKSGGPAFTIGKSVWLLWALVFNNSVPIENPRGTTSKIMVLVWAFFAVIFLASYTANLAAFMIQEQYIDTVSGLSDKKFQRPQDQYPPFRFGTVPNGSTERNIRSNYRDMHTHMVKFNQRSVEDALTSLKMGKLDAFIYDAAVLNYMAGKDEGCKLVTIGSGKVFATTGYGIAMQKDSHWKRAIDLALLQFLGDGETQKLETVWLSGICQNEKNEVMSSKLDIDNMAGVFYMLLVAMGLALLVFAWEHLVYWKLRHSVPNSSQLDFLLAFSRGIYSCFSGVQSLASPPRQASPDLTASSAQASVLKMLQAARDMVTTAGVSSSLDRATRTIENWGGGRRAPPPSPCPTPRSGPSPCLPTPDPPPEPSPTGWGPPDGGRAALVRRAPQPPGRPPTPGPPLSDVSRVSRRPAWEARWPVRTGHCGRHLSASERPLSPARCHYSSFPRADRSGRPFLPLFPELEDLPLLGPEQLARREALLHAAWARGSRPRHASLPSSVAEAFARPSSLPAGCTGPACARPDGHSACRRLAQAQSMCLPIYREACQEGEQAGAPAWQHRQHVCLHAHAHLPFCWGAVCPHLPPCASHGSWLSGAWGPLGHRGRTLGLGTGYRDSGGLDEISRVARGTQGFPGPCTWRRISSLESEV
How it was run: as §1

[4] = molecular target: GluN1-GluN2D NMDAR subtype (Homo sapiens, UniProt O15399+Q05586); assay: FLIPR/Ca2+ assay, NMDAR GluN1-GluN2D subtype in CHO cells; assay type: cell-based; details: CHO cells, 10 μM L-glutamate and 10 μM glycine; n.d. = 50% of inhibition could not be reached at the highest concentration used
How it was run: as §1

[5] = system: Glutamate, NMDA, Phencyclidine binding site; assay: Radioligand displacement binding assay, [3H]TCP, NMDA; design: species or system Wistar rat
Histamine H1 = molecular target: T2, Histamine H1 (Homo sapiens, UniProt P35367); assay: Radioligand displacement binding assay, [3H]pyrilamine, H1
T2 construct: host or cells: CHO-K1
T2 sequence (P35367 whole entry): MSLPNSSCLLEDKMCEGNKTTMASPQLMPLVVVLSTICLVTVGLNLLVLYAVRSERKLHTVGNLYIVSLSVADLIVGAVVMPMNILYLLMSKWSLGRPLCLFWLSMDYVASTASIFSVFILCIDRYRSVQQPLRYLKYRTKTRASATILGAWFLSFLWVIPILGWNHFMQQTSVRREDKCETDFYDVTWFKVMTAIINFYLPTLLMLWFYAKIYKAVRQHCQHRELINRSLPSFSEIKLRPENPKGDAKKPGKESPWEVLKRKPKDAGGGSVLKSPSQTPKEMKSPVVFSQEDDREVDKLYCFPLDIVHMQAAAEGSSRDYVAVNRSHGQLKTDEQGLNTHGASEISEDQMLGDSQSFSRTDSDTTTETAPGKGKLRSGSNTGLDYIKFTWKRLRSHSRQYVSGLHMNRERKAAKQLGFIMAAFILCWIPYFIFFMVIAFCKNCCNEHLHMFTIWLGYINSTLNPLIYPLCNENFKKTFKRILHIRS

Muscarinic M5 = molecular target: T3, Muscarinic M5 (Homo sapiens, UniProt P08912); assay: Radioligand displacement binding assay, [3H]N-methylscopolamine, M5
T3 construct: host or cells: CHO-K1
T3 sequence (P08912 1-532): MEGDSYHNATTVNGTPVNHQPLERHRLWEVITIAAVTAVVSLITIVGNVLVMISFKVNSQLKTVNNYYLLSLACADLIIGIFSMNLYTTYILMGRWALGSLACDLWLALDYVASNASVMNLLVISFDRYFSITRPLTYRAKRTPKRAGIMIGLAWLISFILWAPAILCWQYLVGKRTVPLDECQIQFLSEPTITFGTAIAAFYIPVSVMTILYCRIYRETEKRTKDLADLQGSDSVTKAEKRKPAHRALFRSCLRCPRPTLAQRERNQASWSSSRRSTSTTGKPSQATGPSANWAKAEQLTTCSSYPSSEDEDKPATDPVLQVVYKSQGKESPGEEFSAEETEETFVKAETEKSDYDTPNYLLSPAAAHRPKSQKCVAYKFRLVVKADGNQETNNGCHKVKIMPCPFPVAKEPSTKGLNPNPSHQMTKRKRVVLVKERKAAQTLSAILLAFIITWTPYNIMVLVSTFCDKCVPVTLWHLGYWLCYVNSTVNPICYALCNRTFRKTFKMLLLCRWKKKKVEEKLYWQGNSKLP

μ opioid receptor (MOP) = molecular target: T4, μ opioid receptor (MOP) (Homo sapiens, UniProt P35372); assay: biochemical; assay type: binding; details: read-out: % inhibition of binding, MOP
T4 construct: host or cells: CHO-K1
T4 sequence (P35372 whole entry): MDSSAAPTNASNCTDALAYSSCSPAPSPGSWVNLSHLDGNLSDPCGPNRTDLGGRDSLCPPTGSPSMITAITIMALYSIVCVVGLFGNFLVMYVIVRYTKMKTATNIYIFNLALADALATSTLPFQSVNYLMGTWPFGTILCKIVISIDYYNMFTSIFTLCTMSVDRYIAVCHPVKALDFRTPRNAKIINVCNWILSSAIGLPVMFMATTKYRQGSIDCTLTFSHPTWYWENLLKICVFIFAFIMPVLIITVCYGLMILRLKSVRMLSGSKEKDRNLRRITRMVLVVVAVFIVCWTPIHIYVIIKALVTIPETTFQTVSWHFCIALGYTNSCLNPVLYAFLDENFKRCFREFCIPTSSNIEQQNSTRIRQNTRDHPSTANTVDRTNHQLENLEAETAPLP

Serotonin 5-HT1A = molecular target: T5, Serotonin 5-HT1A (Homo sapiens, UniProt P08908); assay: Radioligand displacement binding assay, [3H]8-OH-DPAT, 5-HT1A
T5 construct: host or cells: CHO-K1
T5 sequence (P08908 1-422): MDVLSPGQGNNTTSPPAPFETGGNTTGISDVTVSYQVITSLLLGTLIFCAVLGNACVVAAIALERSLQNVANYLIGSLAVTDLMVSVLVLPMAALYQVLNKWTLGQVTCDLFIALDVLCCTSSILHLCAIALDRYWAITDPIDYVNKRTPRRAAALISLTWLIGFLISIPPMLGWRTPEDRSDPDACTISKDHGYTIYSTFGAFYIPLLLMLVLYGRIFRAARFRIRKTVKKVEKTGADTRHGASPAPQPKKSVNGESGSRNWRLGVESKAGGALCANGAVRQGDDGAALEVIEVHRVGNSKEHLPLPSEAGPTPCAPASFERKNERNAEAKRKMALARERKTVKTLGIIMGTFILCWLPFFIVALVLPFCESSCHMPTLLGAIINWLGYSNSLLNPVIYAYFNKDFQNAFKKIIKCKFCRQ

Serotonin 5-HT2A = molecular target: T6, Serotonin 5-HT2A (Homo sapiens, UniProt P28223); assay: Radioligand displacement binding assay, [3H]ketanserin, 5-HT2A
T6 construct: host or cells: CHO-K1
T6 sequence (P28223 whole entry): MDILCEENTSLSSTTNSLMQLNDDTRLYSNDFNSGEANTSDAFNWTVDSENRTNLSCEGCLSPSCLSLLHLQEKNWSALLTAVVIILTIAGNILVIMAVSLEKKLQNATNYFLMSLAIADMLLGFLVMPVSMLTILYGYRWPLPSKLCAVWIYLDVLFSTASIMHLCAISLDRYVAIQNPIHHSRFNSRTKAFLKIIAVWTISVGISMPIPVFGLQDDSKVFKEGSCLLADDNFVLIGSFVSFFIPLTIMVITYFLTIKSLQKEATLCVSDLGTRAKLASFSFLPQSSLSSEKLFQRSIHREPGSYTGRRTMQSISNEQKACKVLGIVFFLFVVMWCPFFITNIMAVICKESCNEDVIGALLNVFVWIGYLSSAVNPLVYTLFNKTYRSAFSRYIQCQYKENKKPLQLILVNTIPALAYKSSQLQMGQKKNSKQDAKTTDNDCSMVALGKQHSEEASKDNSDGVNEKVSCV

Serotonin 5-HT2C = molecular target: T7, Serotonin 5-HT2C (Homo sapiens, UniProt P28335); assay: Radioligand displacement binding assay, [3H]mesulergine, 5-HT2C
T7 construct: host or cells: CHO-K1
T7 sequence (P28335 33-458): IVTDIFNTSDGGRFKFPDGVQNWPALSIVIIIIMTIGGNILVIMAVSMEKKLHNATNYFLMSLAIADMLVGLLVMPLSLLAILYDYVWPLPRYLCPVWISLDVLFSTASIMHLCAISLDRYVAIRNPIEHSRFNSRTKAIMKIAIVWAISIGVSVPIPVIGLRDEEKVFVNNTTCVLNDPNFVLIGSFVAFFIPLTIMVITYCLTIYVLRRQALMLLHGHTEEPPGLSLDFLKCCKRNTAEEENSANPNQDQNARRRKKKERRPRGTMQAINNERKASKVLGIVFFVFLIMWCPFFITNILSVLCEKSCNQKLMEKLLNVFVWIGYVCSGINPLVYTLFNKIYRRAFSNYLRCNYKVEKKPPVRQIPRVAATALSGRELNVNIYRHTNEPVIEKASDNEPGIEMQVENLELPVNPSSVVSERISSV

Serotonin 5-HT5A = molecular target: T8, Serotonin 5-HT5A (Homo sapiens, UniProt P47898); assay: Radioligand displacement binding assay, [3H]LSD, 5-HT5A
T8 construct: host or cells: CHO-K1
T8 sequence (P47898 whole entry): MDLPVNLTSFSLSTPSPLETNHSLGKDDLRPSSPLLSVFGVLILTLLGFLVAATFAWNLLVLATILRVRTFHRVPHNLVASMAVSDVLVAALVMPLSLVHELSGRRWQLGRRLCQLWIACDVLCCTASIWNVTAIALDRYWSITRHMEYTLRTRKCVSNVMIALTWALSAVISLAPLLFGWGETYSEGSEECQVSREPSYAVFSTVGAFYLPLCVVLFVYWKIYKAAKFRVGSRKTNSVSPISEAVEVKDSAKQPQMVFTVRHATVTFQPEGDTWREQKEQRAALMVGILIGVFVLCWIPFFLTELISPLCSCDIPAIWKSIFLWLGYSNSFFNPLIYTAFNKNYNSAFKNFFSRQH

Serotonin 5-HT7 = molecular target: T9, Serotonin 5-HT7 (Homo sapiens, UniProt P34969); assay: Radioligand displacement binding assay, [3H]LSD, 5-HT7
T9 construct: host or cells: CHO-K1
T9 sequence (P34969 whole entry): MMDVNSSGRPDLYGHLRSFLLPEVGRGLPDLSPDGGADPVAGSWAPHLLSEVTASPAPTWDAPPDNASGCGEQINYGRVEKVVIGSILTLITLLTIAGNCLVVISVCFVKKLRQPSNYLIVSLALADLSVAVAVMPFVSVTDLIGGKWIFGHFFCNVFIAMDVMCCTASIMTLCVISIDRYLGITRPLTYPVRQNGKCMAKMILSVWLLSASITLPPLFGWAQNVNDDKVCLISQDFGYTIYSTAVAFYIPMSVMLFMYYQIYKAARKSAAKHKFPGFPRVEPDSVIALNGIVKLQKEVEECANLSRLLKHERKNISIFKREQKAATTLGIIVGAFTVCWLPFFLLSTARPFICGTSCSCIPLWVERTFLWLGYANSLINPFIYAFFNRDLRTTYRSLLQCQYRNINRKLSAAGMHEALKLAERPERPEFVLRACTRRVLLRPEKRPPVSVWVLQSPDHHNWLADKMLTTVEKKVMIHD

Sigma σ1 = molecular target: T10, Sigma σ1 (Homo sapiens, UniProt Q99720); assay: Radioligand displacement binding assay, [3H]pentazocine, sigma σ1
T10 construct: Sigma σ1; Source: Human Jurkat cells; host or cells: Jurkat
T10 sequence (Q99720 whole entry): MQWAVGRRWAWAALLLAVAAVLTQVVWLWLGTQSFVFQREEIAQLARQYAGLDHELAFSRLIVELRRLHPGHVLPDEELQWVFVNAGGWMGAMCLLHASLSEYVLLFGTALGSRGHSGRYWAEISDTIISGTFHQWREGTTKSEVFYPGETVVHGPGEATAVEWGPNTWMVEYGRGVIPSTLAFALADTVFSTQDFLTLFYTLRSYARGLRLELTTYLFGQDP

[6] = molecular target: T11, Norepinephrine transporter NET (Homo sapiens, UniProt P23975); assay: Radioligand displacement binding assay, [125I]RTI-55, NET
T11 construct: host or cells: MDCK
T11 sequence (P23975 whole entry): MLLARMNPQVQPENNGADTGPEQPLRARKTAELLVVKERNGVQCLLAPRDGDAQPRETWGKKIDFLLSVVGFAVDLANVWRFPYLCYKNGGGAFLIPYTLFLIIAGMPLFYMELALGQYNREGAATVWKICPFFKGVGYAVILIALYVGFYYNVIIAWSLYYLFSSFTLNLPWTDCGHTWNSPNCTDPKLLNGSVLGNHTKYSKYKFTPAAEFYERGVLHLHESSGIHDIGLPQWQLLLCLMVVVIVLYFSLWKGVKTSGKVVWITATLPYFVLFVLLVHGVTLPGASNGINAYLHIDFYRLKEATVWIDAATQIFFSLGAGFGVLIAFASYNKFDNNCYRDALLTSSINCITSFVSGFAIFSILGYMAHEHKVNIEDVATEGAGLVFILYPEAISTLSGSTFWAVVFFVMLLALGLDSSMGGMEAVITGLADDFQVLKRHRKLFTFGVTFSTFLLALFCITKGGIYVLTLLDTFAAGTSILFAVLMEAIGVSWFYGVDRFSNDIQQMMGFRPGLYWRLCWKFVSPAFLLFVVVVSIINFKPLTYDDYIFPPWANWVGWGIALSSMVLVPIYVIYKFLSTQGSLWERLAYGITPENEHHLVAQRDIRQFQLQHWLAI

[7] = molecular target: T12, Serotonin transporter SERT (Homo sapiens, UniProt P31645); assay: Radioligand displacement binding assay, [3H]paroxetine, SERT; details: for % inhibition of binding, SERT / inhibition at 10 µM: 10 μM
T12 construct: host or cells: HEK-293
T12 sequence (P31645 whole entry): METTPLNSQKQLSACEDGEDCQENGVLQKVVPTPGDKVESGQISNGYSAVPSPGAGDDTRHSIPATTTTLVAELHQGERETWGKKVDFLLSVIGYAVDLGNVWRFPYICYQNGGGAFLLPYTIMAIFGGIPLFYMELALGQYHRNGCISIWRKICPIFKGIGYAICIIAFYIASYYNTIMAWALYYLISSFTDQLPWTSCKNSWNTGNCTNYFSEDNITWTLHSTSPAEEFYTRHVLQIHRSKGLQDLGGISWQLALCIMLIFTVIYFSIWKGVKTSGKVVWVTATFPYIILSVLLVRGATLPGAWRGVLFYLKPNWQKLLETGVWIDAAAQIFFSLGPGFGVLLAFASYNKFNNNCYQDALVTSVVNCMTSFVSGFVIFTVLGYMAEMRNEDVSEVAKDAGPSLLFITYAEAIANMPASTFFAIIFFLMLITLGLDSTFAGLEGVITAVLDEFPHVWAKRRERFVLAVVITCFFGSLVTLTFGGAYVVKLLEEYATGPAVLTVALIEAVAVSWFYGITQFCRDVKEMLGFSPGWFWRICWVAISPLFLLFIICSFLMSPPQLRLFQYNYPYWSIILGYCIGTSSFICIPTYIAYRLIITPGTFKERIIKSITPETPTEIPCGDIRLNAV

Compound | pIC50 (mean ± SEM) GluN1-GluN2A [1] | pIC50 (mean ± SEM) GluN1-GluN2B [2] | pIC50 (mean ± SEM) GluN1-GluN2C [3] | pIC50 (mean ± SEM) GluN1-GluN2D [4] | % inhibition of binding, NMDA ([5]; 1 μM) [%] | inhibition at 10 µM (Histamine H1) [%] | inhibition at 30 µM (Histamine H1) [%] | inhibition at 1 µM (Muscarinic M5) [%] | inhibition at 10 µM (Muscarinic M5) [%] | inhibition at 0.3 µM (μ opioid receptor (MOP)) [%] | inhibition at 3 µM (μ opioid receptor (MOP)) [%] | inhibition at 0.3 µM (Serotonin 5-HT1A) [%] | inhibition at 3 µM (Serotonin 5-HT1A) [%] | inhibition at 0.3 µM (Serotonin 5-HT2A) [%] | inhibition at 3 µM (Serotonin 5-HT2A) [%] | inhibition at 0.3 µM (Serotonin 5-HT2C) [%] | inhibition at 3 µM (Serotonin 5-HT2C) [%] | inhibition at 1 µM (Serotonin 5-HT5A) [%] | inhibition at 10 µM (Serotonin 5-HT5A) [%] | inhibition at 1 µM (Serotonin 5-HT7) [%] | other results
CC[C@H](O)C(C[C@H](C)N)(c1ccccc1)c1ccccc1 [(3S,6S)-DNML, (3S,6S)-6-amino-4,4-diphenylheptan-3-ol] | 4.9 ± 0.081 | 4.4 ± 0.13 | 4.7 ± 0.056 | 4.7 ± 0.079 | 9 | 5 | 24 | 1 | 9 | 38 | 84 | 24 | 15 | 12 | 10 | 1 | 19 | -7 | -12 | 5 | % inhibition of binding, NMDA ([5]; 10 μM): 36%; inhibition at 10 µM (Serotonin 5-HT7): 4%; inhibition at 0.3 µM (Sigma σ1): 46%; inhibition at 3 µM (Sigma σ1): 71%; inhibition at 1 µM [6]: -5%; inhibition at 10 µM [6]: 3%; inhibition at 1 µM [7]: 35%; % inhibition of binding, SERT [7]: displaced; inhibition at 10 µM [7]: 82%
CC[C@@H](O)C(C[C@H](C)N)(c1ccccc1)c1ccccc1 [(3R,6S)-DNML, (3R,6S)-6-amino-4,4-diphenylheptan-3-ol] | 4.6 ± 0.077 | 4.6 ± 0.062 | 5.1 ± 0.062 | 4.9 ± 0.093 | 12 | 4 | 19 | 9 | 13 | -3 | 26 | 1 | -1 | 6 | 9 | 3 | -1 | -1 | 16 | 14 | inhibition at 10 µM (Serotonin 5-HT7): 12%; inhibition at 0.3 µM (Sigma σ1): 17%; inhibition at 3 µM (Sigma σ1): 61%; inhibition at 1 µM [6]: 0%; inhibition at 10 µM [6]: 5%; inhibition at 1 µM [7]: 29%; % inhibition of binding, SERT [7]: displaced; inhibition at 10 µM [7]: 65%
